Test results taken from US20260234115A1, “LIPID COMPOUNDS, COMPOSITIONS, AND USES THEREOF” (Liberate Bio, Inc., priority 2023, published 2026).
Marks after values point to notes of the source that are not given here.

Assays:
[1] = Dynamic light scattering: LNP particle size and PDI; type: physicochemical; settings: for Particle Size (nm) / PDI: LNP compositions for in vivo mouse study; for Particle Size (nm): four formulations (F1-F4) of the lipid compound pooled, or pools of four compounds (sixteen compositions); for PDI: four formulations (F1-F4) pooled, or pools of four compounds; for PDI N/P:6 / Size (nm) N/P:6: LNP
How it was run: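 The LNPs were made by microfluidic mixing of the lipids in ethanol with mRNA in pH 4.0 citrate, then dialyzed into PBS pH 7.4. They were diluted in PBS pH 7.4, and particle size and PDI were measured by dynamic light scattering.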

[2] = Plate-based fluorescence (RiboGreen) assay: nucleic acid cargo content and encapsulation efficiency of LNPs; type: physicochemical; settings: for EE % / mRNA Content: LNP compositions for in vivo mouse study, four formulations (F1-F4) pooled, or pools of four compounds; for EE (%) N/P:6: LNP
How it was run: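 LNPs made by microfluidic mixing of ethanolic lipids with mRNA in pH 4.0 citrate, dialyzed into PBS pH 7.4. Cargo quantified by RiboGreen fluorescence against a standard curve: Triton-lysed samples give total, TE-only samples give free cargo; encapsulation efficiency from their ratio.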

mouse organs = assay: In vivo activity screening in mice: organ mean total flux (p/s) of luciferase activity after injection of F2 LNP pools (Table 6, FIG. 7A-7C); settings: Mouse 1, dose 0.3 mg/kg, luciferase mRNA
How it was run: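 C57BL/6J mice given one tail-vein injection of pooled Formulation F2 LNPs carrying firefly luciferase mRNA (0.25-3 mg/kg) in PBS. At 4-6 h, s.c. D-luciferin given; organs imaged ex vivo by IVIS within 10-15 min, after saline cardiac perfusion. Mean total flux (p/s) per organ ROI.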

Compound | Particle Size (nm) [1] | PDI [1] | PDI N/P:6 ([1]; Formulation F1, N/P 6) | Size (nm) N/P:6 ([1]; Formulation F1, N/P 6) | PDI N/P:6 ([1]; Formulation F2, N/P 6) | Size (nm) N/P:6 ([1]; Formulation F2, N/P 6) | PDI N/P:6 ([1]; Formulation F3, N/P 6) | Size (nm) N/P:6 ([1]; Formulation F3, N/P 6) | PDI N/P:6 ([1]; Formulation F4, N/P 6) | Size (nm) N/P:6 ([1]; Formulation F4, N/P 6) | EE % [2] | mRNA Content [2] | EE (%) N/P:6 ([2]; Formulation F1, N/P 6) | EE (%) N/P:6 ([2]; Formulation F2, N/P 6) | EE (%) N/P:6 ([2]; Formulation F3, N/P 6) | EE (%) N/P:6 ([2]; Formulation F4, N/P 6) | Organ Mean Total Flux Femur (mouse organs) | Organ Mean Total Flux Heart (mouse organs) | Organ Mean Total Flux Kidney (mouse organs) | Organ Mean Total Flux Liver (mouse organs) | other results
CCCCC/C=C\CCOC(=O)CCCCCC(=O)OCC(COC(=O)CCCCCC(=O)OCC/C=C\CCCCC)(COC(=O)CCC(CCCCCC)OC(=O)NCCN1CCCC1)COC(=O)CCC(OCCCCCCCC)OCCCCCCCC (stereo not drawn) [Compound 9, O7-[2-(4,4-dioctoxybutanoyloxymethyl)-2-[[7-[(Z)-non-3-enoxy]-7-oxo-heptanoyl]oxymethyl]-3-[4-(2-pyrrolidin-1ylethylcarbamoyloxy)decanoyloxy]propyl]O1-[(Z)-non-3-enyl]heptanedioate] | 79 nm | 0.07 | 0.07 | 68 ± 2 nm | 0.03 | 76 ± 1 nm | 0.03 | 92 ± 2 nm | 0.13 | 63 ± 1 nm | 97% | 102 µg/mL | 100% | 100% | 99% | 99% | 7.6 p/s (×10^6) | 1.4 p/s (×10^6) | 3.4 p/s (×10^6) | 3583 p/s (×10^6) | Organ Mean Total Flux Lung (mouse organs): 29.8 p/s (×10^6); Organ Mean Total Flux Muscle (mouse organs): 8.3 p/s (×10^6); Organ Mean Total Flux Pancreas (mouse organs): 6.7 p/s (×10^6); Organ Mean Total Flux Spleen (mouse organs): 32.5 p/s (×10^6)
CCCCC/C=C\C/C=C\CCCCCCCC(=O)OCC(COC(=O)CCCCCCC/C=C\C/C=C\CCCCC)(COC(=O)CCCCCCC/C=C\C/C=C\CCCCC)COC(=O)CCC(CCCCCC)OC(=O)NCCN1CCCC1 (stereo not drawn) [Compound 2, 2-((((9Z,12Z)-octadeca-9,12-dienoyl)oxy)methyl)-2-(((4-(((2-(pyrrolidin-1-yl)ethyl)carbamoyl)oxy)decanoyl)oxy)methyl)propane-1,3-diyl (9Z,9′Z,12Z,12′Z)-bis(octadeca-9,12-dienoate)] | 82.3 nm | 0.11 | 0.16 | 75 ± 8 nm | 0.04 | 84 ± 1 nm | 0.04 | 91 ± 0 nm | 0.18 | 65 ± 2 nm | 96% | 86 µg/mL | 98% | 98% | 98% | 97% | 0.8 p/s (×10^6) | 0.2 p/s (×10^6) | 0.7 p/s (×10^6) | 99.8 p/s (×10^6) | Organ Mean Total Flux Lung (mouse organs): 2.6 p/s (×10^6); Organ Mean Total Flux Muscle (mouse organs): 0.5 p/s (×10^6); Organ Mean Total Flux Pancreas (mouse organs): 0.2 p/s (×10^6); Organ Mean Total Flux Spleen (mouse organs): 15.6 p/s (×10^6)
